Assay results as given in paper PMC4648113 (Acta Pharmacologica Sinica, 2015).
“And” between values parts separate entries of the source, which are not always exact repeats. Equal values may be shown once. “Also recorded” adds a separate entry of the source.

Key:
human α7 nAChR [1] = target: T1, human α7 nAChR (Homo sapiens, UniProt P36544); assay: Two-electrode voltage clamp; assay type: cell-based; details: for Concentration needed to reach 30% of the response of ACh: oocyte assay; for Maximal response vs 3 mmol/L ACh: peak current normalized to 3 mmol/L ACh
T1 sequence (P36544 23-502): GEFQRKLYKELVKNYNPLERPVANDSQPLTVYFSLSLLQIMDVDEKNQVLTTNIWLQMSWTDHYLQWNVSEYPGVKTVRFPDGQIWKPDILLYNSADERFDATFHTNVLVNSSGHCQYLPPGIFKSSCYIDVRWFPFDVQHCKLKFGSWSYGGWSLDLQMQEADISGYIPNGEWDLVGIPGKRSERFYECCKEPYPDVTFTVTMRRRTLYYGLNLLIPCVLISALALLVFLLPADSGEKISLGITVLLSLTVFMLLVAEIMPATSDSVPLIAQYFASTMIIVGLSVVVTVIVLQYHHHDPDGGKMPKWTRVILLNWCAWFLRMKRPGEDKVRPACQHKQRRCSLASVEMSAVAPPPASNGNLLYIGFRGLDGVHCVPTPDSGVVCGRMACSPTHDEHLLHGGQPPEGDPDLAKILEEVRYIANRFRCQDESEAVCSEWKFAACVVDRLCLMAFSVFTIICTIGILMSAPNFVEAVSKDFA

[2] = target: native α7 nAChR in hippocampal neurons (Rattus norvegicus, UniProt Q05941); assay type: cell-based
Chain of native α7 nAChR in hippocampal neurons (Q05941 23-502): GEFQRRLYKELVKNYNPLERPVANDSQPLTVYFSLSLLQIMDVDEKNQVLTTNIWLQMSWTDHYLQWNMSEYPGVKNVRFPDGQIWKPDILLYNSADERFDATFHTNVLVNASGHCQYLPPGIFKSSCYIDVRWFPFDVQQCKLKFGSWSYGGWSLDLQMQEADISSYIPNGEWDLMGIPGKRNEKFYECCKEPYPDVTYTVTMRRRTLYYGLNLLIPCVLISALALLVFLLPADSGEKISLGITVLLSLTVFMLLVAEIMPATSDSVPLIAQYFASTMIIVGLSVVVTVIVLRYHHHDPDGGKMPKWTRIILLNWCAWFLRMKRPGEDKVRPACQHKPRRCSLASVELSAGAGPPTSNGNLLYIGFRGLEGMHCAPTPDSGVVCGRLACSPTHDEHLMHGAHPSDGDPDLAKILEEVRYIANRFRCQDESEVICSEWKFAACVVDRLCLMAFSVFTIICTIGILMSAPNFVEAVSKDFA

[3] = system: ERK1/2 phosphorylation in PC12 cells; assay: Western blot of ERK1/2 phosphorylation in PC12 cells; assay type: cell-based, rat; details: pre-incubation 10 min
[4] = system: CA1 hippocampal pyramidal neurons; assay: Spontaneous IPSC recordings in hippocampal brain slices; assay type: cell-based, rat
human α7 nAChR [5] = target: T1, human α7 nAChR; assay: TEVC, inhibition; assay type: cell-based
rat α4β2 nAChR = rat α4β2 nAChR (Rattus norvegicus, UniProt P09483+P12390); assay: TEVC in Xenopus oocytes, selectivity on α4β2; assay type: cell-based
Chain of rat α4β2 nAChR (P09483 31-630): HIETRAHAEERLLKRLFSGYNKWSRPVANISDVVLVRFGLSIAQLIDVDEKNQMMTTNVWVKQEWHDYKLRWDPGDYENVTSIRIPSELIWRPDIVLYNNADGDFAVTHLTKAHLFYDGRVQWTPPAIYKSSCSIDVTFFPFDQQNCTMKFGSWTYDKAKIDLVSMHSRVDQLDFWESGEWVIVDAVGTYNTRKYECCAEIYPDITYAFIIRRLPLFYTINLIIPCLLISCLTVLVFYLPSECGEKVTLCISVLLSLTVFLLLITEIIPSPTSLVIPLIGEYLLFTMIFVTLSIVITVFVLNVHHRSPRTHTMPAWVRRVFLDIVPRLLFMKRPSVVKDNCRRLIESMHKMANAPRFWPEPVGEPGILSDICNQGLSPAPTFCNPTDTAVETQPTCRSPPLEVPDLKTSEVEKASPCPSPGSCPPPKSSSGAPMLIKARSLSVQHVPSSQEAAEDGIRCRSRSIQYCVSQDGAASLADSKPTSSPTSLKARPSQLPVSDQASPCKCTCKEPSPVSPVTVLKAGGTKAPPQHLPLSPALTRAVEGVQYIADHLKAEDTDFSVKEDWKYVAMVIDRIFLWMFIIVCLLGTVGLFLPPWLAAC
Chain of rat α4β2 nAChR (P12390 25-500): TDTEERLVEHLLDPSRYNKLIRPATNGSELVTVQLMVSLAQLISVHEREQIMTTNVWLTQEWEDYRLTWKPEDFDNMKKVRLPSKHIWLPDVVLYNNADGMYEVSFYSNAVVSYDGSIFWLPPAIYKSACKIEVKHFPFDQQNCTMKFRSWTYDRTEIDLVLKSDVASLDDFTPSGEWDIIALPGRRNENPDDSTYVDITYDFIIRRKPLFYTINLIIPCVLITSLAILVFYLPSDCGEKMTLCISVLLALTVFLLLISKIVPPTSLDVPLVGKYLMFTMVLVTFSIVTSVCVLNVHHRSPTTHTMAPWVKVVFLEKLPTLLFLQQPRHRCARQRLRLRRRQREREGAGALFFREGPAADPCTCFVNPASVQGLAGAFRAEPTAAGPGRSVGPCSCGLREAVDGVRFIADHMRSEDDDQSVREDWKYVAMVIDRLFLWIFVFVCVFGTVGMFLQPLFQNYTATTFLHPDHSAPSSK

rat α3β4 nAChR = rat α3β4 nAChR (Rattus norvegicus, UniProt P04757+P12392); assay: TEVC in Xenopus oocytes, selectivity on α3β4; assay type: cell-based
Chain of rat α3β4 nAChR (P04757 26-499): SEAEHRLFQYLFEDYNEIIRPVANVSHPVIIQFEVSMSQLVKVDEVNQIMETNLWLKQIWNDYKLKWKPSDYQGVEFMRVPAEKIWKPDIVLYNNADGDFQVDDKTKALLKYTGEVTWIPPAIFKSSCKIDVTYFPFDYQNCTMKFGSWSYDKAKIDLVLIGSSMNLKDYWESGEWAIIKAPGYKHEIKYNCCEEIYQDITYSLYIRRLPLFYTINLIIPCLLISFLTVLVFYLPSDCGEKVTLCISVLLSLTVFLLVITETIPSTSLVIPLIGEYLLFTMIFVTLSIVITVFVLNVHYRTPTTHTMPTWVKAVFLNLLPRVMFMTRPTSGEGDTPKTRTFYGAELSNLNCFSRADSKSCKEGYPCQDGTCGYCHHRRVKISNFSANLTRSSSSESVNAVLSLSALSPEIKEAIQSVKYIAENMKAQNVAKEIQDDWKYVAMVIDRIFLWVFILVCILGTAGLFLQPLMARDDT
Chain of rat α3β4 nAChR (P12392 21-495): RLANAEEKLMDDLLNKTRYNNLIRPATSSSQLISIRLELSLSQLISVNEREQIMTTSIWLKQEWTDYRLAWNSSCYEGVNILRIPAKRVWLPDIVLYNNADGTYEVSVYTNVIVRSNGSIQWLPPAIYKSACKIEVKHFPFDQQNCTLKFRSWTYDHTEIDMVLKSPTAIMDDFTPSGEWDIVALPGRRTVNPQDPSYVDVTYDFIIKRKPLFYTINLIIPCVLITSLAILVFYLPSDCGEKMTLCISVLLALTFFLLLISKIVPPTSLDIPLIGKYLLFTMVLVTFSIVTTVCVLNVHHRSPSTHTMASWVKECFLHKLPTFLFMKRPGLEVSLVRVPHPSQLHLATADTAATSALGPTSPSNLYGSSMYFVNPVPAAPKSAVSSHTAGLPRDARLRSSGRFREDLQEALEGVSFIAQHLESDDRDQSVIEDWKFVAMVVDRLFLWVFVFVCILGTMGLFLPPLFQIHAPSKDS

human 5-HT3A receptor = target: T2, human 5-HT3A receptor (Homo sapiens, UniProt P46098); assay: TEVC in Xenopus oocytes, selectivity on 5-HT3A; assay type: cell-based
T2 sequence (P46098 24-478): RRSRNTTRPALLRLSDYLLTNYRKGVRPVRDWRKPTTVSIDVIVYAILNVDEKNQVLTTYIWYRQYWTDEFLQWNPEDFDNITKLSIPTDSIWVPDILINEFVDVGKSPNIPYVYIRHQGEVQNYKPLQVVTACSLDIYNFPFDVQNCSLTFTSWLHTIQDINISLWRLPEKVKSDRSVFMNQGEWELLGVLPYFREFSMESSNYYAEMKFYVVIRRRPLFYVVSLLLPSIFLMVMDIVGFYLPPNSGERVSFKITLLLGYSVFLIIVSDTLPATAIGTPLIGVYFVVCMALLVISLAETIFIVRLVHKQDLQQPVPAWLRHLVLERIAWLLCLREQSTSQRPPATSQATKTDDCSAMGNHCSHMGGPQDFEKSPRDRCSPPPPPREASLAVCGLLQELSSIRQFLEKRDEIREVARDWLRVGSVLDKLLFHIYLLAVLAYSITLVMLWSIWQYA

[6] = target: human α1β3γ2 GABAA receptor (Homo sapiens, UniProt P14867+P18507+P28472); assay: TEVC in Xenopus oocytes, GABAA α1β3γ2; assay type: cell-based
Chain of human α1β3γ2 GABAA receptor (P14867 28-456): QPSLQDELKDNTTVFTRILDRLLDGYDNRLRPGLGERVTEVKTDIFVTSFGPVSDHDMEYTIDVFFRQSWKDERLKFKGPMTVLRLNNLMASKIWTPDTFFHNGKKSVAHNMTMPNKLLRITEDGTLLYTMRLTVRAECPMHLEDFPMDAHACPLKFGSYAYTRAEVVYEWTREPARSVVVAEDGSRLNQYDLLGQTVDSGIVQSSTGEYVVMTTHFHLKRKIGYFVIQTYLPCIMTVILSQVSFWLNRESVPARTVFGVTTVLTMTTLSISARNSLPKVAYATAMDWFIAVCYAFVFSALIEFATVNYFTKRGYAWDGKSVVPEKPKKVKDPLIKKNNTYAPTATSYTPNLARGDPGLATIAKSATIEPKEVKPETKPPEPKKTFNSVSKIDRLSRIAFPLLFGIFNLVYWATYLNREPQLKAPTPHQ
Chain of human α1β3γ2 GABAA receptor (P28472 26-473): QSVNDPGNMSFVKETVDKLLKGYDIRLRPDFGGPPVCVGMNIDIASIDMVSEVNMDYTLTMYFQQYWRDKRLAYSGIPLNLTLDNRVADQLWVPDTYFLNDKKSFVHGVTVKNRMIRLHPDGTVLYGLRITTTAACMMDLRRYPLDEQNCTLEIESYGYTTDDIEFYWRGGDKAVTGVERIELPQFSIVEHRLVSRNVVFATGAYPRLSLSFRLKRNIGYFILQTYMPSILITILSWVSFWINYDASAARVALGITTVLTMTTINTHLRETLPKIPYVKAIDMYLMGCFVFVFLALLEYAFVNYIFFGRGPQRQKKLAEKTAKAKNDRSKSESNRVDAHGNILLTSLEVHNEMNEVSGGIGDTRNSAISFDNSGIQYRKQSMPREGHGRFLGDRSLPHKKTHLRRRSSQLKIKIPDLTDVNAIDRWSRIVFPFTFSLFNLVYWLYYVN
Chain of human α1β3γ2 GABAA receptor (P18507 40-475): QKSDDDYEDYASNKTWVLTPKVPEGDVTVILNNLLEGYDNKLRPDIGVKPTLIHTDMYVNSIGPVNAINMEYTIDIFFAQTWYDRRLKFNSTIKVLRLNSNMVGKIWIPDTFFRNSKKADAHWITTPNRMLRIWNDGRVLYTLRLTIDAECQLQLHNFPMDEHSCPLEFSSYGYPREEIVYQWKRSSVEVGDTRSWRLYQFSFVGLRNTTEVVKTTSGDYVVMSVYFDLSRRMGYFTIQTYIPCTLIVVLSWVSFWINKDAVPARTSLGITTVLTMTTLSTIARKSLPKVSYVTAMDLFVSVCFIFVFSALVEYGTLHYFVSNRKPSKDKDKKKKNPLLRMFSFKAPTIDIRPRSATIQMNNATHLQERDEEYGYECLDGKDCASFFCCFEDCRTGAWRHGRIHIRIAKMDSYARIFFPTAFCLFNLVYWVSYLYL

[7] = target: human α2β3γ2 GABAA receptor (Homo sapiens, UniProt P18507+P28472+P47869); assay: TEVC in Xenopus oocytes, GABAA α2β3γ2; assay type: cell-based
Chain of human α2β3γ2 GABAA receptor (P47869 29-451): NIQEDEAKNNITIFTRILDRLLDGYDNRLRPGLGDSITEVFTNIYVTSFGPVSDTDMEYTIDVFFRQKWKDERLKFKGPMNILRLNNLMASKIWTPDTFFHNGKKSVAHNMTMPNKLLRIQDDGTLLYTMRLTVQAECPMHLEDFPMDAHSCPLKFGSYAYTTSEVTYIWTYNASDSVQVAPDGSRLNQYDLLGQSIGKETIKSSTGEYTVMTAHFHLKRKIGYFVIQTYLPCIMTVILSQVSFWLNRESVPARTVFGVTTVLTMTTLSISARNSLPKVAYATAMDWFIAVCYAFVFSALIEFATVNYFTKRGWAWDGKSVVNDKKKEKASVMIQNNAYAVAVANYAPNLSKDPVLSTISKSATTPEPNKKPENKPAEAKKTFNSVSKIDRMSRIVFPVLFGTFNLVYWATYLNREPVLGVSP
Chain of human α2β3γ2 GABAA receptor (P28472 26-473): as the sequence (P28472 26-473) above
Chain of human α2β3γ2 GABAA receptor (P18507 40-475): as the sequence (P18507 40-475) above

[8] = target: human α3β3γ2 GABAA receptor (Homo sapiens, UniProt P18507+P28472+P34903); assay: TEVC in Xenopus oocytes, GABAA α3β3γ2; assay type: cell-based
[9] = target: human α5β3γ2 GABAA receptor (Homo sapiens, UniProt P18507+P28472+P31644); assay: TEVC in Xenopus oocytes, GABAA α5β3γ2; assay type: cell-based
α7 nAChR [10] = target: T3, α7 nAChR (Rattus norvegicus, UniProt Q05941); details: Ki ratio vs ACh
T3 sequence (Q05941 23-502): as the sequence (Q05941 23-502) above

α7 nAChR [11] = target: T3, α7 nAChR; assay: biochemical
[12] = Br-IQ17B alone, up to 100 μmol/L
[13] = 100 μmol/L co-applied with 1 μmol/L GABA
[14] = 100 μmol/L, pre-incubation 1 min

CCN1C[C@]2(COC(=O)c3ccccc3N3C(=O)C[C@H](C)C3=O)CC[C@H](OC)[C@@]34[C@@H]5C[C@H]6[C@H](OC)[C@@H]5[C@](O)(C[C@@H]6OC)[C@@](O)([C@@H](OC)[C@H]23)[C@@H]14 [MLA, methyllycaconitine]
Effect of MLA on α7 current evoked by Br-IQ17B (human α7 nAChR [1]; 10 nmol/L MLA, 30 μmol/L Br-IQ17B): inhibited; also recorded: completely blocked
Effect of MLA on Br-IQ17B-evoked native α7 current [2]: completely blocked

O=C(N[C@H]1CN2CCC1CC2)c1cc2cccc(Cl)c2s1 [EVP-6124]
EC50 (human α7 nAChR [1]): 450 ± 80 nM
Concentration needed to reach 30% of the response of ACh (human α7 nAChR [1]): 3 µmol/L
Maximal response vs 3 mmol/L ACh (human α7 nAChR [1]): 30.6%±1.8%

CC(=O)OCC[N+](C)(C)C [ACh, acetylcholine]
Current evoked in hippocampal neurons [2]: evoked α7 currents with fast onset and rapid decay

COc1cc(OC)c(NC(=O)Nc2cc(C)on2)cc1Cl [PNU-120596]
Effect of PNU-120596 on current activated by Br-IQ17B [2]: significantly enhanced
Effect of PNU-120596 on current evoked by low concentration of ACh ([2]; PNU-120596 1 μmol/L, ACh 10 μmol/L): robustly increased
Effect of PNU-120596 alone on basal pERK/tERK ratio [3]: slight increase
sIPSC frequency with PNU-120596 alone ([4]; PNU-120596 1 μmol/L, 10 min, baseline 4.5±0.7 Hz): 4.6±0.7 Hz
sIPSC amplitude with PNU-120596 alone ([4]; PNU-120596 1 μmol/L, 10 min, baseline 30.8±6.8 pA): 30.6±4.7 pA

O=C(N[C@H]1CN2CCC1CC2)c1cc2cccc(Br)n2c1 [Br-IQ17B, N-[(3R)-1-azabicyclo[2,2,2]oct-3-yl]-5-bromoindolizine-2-carboxamide]
Hill coefficient in the presence of PNU-120596 (human α7 nAChR [1]; co-applied with 1 μmol/L PNU-120596): 2.4±0.1
Hill coefficient, activation of α7 current (human α7 nAChR [1]; compound alone): 1.2±0.1
Concentration needed to reach 30% of the response of ACh (human α7 nAChR [1]): 1.5 µmol/L
Maximal response vs 3 mmol/L ACh (human α7 nAChR [1]): 64.3%±3.6%
IC50 (human α7 nAChR [5]): 28.5 ± 2.5 nM
Effect of low concentration on ACh-mediated peak current (human α7 nAChR [5]; 3 nmol/L Br-IQ17B, 100 μmol/L ACh): increased the ACh-mediated peak current
Hill coefficient, inhibition of ACh-evoked α7 current (human α7 nAChR [5]; 1-min sustained exposure, then 100 μmol/L ACh): 2.8±0.3
EC50 (rat α4β2 nAChR): > 100 µM
IC50 (rat α4β2 nAChR): > 100 µM
Agonist activity on α4β2 (rat α4β2 nAChR; [12]): did not induce any current; also recorded: no detectable agonist activity
Effect on ACh-evoked α4β2 current (rat α4β2 nAChR; pre-incubation 1 min or co-application with ACh): no enhancement or inhibition
Maximum effect vs 3 mmol/L ACh or 10 μmol/L 5-HT (rat α4β2 nAChR; α4β2, Rat): 0
EC50 (rat α3β4 nAChR): > 100 µM
Agonist activity on α3β4 (rat α3β4 nAChR; [12]): did not induce any current; also recorded: no detectable agonist activity
IC50 (rat α3β4 nAChR; IC50, inhibition of ACh-evoked α3β4 current, co-applied with 300 μmol/L ACh): ~382 µM and 382 µM and ~381 µM
Hill coefficient, inhibition of α3β4 (rat α3β4 nAChR; co-applied with 300 μmol/L ACh): 0.9±0.1
Maximum effect vs 3 mmol/L ACh or 10 μmol/L 5-HT (rat α3β4 nAChR; α3β4, Rat): 0
EC50 (human 5-HT3A receptor): > 100 µM
Maximum effect vs 3 mmol/L ACh or 10 μmol/L 5-HT (human 5-HT3A receptor; 5-HT3A, Human): 0
Agonist activity on 5-HT3A (human 5-HT3A receptor; Br-IQ17B alone, 0.1–100 μmol/L): did not show any agonist activities
Hill coefficient, inhibition of 5-HT3A (human 5-HT3A receptor; co-applied with 10 μmol/L 5-HT): 2.1±0.1
Allosteric modulation of GABAA α1β3γ2 [6, 13]: no allosteric modulation
Effect on GABAA α1β3γ2 [6, 14]: no observable effects
Allosteric modulation of GABAA α2β3γ2 [7, 13]: no allosteric modulation
Effect on GABAA α2β3γ2 [7, 14]: no observable effects
Allosteric modulation of GABAA α3β3γ2 [8, 13]: no allosteric modulation
Effect on GABAA α3β3γ2 [8, 14]: no observable effects
Allosteric modulation of GABAA α5β3γ2 [9, 13]: no allosteric modulation
Effect on GABAA α5β3γ2 [9, 14]: no observable effects
Current evoked in hippocampal neurons [2]: evoked α7 currents with fast onset and rapid decay
sIPSC frequency with co-application of PNU-120596 and Br-IQ17B ([4]; Br-IQ17B 10 μmol/L + PNU-120596 1 μmol/L, 1–5 min, from 4.6±0.7 Hz): 7.8±0.7 Hz
Increase of IPSC peak amplitudes of individual neurons ([4]; Br-IQ17B 10 μmol/L + PNU-120596 1 μmol/L, 5 out of 6 neurons, vs control or PNU120596 alone): 1.3 to 4.9 times
IPSC amplitude in the one neuron out of six without amplitude change ([4]; co-application of Br-IQ17B and PNU-120596, vs 25.3±1.4 pA): 25.9±1.2 pA
Fold more potent than ACh in [3H]-MLA displacement (α7 nAChR [10]): approximately 300 fold
Ki (α7 nAChR [11]): 14.9 ± 3.2 nM
